Laboratory results as given in patent publication US8822517B2, “Arylosulfonamides for the treatment of CNS diseases” (Adamed SP. Z O.O., priority 2010, dated 2014).

Key:
[1] = biological target: T1, serotonine transporter (SERT) receptor (Homo sapiens, UniProt P31645); assay: Binding assay SERT (h), [3H]imipramine, CHO cells; settings: read-out: SERT [%]
T1 construct: expressed in transfected cells; host or cells: CHO cells
Method in brief: (§1)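 Total binding and binding under an excess of unlabelled competitor were both measured, the difference giving specific binding. Counts came from scintillation detection, and compound concentration was 1×10^−6 M.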

[2] = test system: sigma σ receptor; assay: Binding assay σ (non-selective), [3H]DTG, rat cerebral cortex; settings: percent inhibition of control specific binding; compounds tested at 1×10^−6 M
Protocol: (§2) The specific ligand binding to the receptors is defined as the difference between the total binding and the nonspecific binding determined in the presence of an excess of so unlabelled ligand.
(§3) The specific Ligand binding to the receptor is defined as the difference between total and non-specific binding determined in the presence of an excess of unlabelled ligand. The compounds were tested at a concentration of 1×10^−6 M, and scintillation counting was the method of detection of ligand binding.

[3] = test system: adrenergic α1 receptor; assay: Binding assay α1 (non-selective), [3H]prazosin, rat cerebral cortex; settings: percent inhibition of control specific binding; compounds tested at 1×10^−6 M
Method in brief: as §1

[4] = biological target: T2, muscarinic M3 receptor (Homo sapiens, UniProt P20309); assay: Binding assay M3 (h), [3H]4-DAMP, CHO cells; settings: read-out: M3 [%]
T2 construct: expressed in transfected cells; host or cells: CHO cells
T2 sequence (P20309 whole entry): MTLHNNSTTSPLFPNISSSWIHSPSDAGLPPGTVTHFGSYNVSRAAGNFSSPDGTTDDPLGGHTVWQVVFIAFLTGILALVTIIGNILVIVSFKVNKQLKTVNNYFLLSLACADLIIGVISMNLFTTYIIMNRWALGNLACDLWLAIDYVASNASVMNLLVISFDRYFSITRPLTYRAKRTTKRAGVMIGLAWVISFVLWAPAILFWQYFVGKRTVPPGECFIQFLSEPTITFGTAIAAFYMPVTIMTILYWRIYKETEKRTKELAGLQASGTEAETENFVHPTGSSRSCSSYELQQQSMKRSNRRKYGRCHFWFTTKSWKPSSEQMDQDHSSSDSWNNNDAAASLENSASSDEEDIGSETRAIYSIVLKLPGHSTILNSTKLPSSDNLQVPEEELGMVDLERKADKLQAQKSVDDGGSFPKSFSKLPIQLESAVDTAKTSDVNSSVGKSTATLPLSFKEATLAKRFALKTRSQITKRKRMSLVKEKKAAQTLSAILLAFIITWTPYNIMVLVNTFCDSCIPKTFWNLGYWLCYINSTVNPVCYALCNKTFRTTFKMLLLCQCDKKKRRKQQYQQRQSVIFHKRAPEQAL
Protocol: as §2, §3

[5] = biological target: T3, serotoninergic receptor 5-HT2C (Homo sapiens, UniProt P28335); assay: Binding assay 5-HT2C (h), [3H]mesulergine, HEK-293 cells; settings: read-out: 5-HT2C [%]
T3 construct: expressed in transfected cells; host or cells: HEK-293 cells
T3 sequence (P28335 33-458): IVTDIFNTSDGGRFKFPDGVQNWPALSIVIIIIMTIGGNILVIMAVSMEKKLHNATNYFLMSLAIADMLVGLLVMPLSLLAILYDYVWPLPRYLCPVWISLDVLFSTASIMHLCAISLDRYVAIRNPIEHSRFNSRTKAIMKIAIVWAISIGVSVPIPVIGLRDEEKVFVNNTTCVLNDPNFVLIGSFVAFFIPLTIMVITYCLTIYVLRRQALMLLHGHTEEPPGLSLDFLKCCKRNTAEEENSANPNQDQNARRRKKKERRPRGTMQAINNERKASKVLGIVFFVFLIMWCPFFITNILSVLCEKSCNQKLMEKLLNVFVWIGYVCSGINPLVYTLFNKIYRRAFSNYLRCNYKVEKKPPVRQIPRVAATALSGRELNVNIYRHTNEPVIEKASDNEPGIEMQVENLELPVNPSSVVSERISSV
Protocol: as §2, §3

[6] = biological target: dopaminergic D3 receptor (Homo sapiens, UniProt P35462); assay: Binding assay D3 (h), [3H]methyl-spiperone, CHO cells; set-up: expressed in transfected cells; host or cells: CHO cells; settings: read-out: D3 [%]
Sequence of dopaminergic D3 receptor (P35462 whole entry): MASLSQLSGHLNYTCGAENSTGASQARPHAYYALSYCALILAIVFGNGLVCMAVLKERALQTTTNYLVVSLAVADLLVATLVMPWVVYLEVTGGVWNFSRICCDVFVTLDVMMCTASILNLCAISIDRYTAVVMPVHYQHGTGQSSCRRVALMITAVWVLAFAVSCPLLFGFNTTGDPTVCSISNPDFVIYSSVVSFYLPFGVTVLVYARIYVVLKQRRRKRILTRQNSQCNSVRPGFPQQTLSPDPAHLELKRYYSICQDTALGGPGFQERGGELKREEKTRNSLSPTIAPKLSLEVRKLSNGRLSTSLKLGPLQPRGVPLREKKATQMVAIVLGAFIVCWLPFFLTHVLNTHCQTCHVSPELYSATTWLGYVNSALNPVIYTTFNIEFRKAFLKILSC
Method in brief: as §1

[7] = biological target: serotoninergic 5-HT6 receptor (Homo sapiens, UniProt P50406); assay: Binding assay 5-HT6 (h), [3H]LSD, CHO cells; set-up: expressed in transfected cells; host or cells: CHO cells; settings: read-out: 5-HT6
Sequence of serotoninergic 5-HT6 receptor (P50406 whole entry): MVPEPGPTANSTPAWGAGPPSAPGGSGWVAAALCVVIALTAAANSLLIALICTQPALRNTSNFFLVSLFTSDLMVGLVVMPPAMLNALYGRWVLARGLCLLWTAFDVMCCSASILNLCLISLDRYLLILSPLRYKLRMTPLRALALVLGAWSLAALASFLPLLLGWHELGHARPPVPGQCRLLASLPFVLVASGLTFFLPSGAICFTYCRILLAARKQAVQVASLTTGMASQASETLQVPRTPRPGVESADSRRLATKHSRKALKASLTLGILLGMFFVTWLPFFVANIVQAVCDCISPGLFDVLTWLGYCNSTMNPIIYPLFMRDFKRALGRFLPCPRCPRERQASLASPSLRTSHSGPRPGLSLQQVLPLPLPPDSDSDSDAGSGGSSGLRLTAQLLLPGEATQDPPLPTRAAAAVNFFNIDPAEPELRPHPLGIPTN
Method in brief: as §1

[8] = biological target: serotoninergic 5-HT7 receptor (Homo sapiens, UniProt P34969); assay: Binding assay 5-HT7 (h), [3H]LSD, CHO cells; set-up: expressed in transfected cells; host or cells: CHO cells; settings: read-out: 5-HT7
Sequence of serotoninergic 5-HT7 receptor (P34969 whole entry): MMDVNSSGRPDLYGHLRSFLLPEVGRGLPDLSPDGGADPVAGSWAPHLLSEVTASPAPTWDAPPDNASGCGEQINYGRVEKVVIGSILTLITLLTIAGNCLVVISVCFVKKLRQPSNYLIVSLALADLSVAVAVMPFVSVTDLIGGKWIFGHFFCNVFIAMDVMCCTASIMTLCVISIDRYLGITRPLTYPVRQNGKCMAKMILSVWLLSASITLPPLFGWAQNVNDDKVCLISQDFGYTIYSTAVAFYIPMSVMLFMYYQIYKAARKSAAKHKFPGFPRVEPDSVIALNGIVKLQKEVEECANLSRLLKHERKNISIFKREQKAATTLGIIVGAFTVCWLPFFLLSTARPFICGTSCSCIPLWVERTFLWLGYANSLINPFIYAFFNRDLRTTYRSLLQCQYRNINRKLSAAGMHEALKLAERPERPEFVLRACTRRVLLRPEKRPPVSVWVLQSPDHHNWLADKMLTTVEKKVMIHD
Method in brief: as §1

[9] = biological target: T4, adrenergic α2C receptor (Homo sapiens, UniProt P18825); assay: Binding assay α2C (h), [3H]RX 821002, CHO cells; set-up: expressed in transfected cells; host or cells: CHO cells; settings: read-out: α2C [%]
T4 sequence (P18825 1-462): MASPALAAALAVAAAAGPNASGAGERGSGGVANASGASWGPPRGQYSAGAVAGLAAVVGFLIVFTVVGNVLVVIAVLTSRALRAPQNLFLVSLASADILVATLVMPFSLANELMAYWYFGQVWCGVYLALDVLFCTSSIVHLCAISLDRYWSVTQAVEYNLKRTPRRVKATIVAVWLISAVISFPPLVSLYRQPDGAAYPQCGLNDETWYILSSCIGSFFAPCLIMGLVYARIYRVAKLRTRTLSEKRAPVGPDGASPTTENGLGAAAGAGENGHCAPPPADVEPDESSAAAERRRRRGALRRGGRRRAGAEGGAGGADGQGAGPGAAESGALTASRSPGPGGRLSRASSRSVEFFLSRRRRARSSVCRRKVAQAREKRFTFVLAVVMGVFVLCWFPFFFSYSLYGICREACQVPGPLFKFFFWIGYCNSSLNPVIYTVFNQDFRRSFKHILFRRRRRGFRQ
Protocol: as §2, §3

[10] = biological target: dopaminergic D2 receptor (Homo sapiens, UniProt P14416); assay: Binding assay D2S (h), [3H]methyl-spiperone, HEK-293 cells; set-up: expressed in transfected cells; host or cells: HEK-293 cells; settings: read-out: D2 [%]
Sequence of dopaminergic D2 receptor (P14416 1-414 isoform P14416-2): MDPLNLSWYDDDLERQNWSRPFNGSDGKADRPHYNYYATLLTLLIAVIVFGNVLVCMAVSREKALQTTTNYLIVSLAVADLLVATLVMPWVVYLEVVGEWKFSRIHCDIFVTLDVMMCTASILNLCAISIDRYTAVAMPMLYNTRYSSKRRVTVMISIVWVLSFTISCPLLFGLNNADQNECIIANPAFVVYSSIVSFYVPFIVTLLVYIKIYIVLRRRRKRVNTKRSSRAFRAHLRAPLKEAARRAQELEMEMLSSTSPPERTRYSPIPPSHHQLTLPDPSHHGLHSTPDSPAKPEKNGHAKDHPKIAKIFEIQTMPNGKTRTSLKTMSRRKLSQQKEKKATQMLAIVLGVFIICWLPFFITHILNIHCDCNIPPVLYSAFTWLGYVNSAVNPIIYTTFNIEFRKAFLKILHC
Method in brief: as §1

[11] = biological target: T5, serotoninergic 5-HT1A receptor (Homo sapiens, UniProt P08908); assay: Binding assay 5-HT1A (h), [3H]8-OH-DPAT, HEK-293 cells; set-up: expressed in transfected cells; host or cells: HEK-293 cells; settings: read-out: 5-HT1A
T5 sequence (P08908 1-422): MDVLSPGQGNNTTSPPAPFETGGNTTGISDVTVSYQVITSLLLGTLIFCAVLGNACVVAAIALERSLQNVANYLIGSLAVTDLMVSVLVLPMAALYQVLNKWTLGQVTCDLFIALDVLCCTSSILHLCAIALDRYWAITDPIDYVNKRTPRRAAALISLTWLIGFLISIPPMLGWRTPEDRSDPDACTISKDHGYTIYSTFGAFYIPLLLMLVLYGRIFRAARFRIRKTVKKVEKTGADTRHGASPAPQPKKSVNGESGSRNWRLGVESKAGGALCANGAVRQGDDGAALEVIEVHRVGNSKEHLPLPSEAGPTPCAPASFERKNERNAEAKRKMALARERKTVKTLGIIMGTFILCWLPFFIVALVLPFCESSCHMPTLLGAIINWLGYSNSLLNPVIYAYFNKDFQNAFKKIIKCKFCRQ
Method in brief: as §1

[12] = biological target: serotoninergic 5-HT2A receptor (Homo sapiens, UniProt P28223); assay: Binding assay 5-HT2A (h), [3H]ketanserin, HEK-293 cells; set-up: expressed in transfected cells; host or cells: HEK-293 cells; settings: read-out: 5-HT2A
Sequence of serotoninergic 5-HT2A receptor (P28223 whole entry): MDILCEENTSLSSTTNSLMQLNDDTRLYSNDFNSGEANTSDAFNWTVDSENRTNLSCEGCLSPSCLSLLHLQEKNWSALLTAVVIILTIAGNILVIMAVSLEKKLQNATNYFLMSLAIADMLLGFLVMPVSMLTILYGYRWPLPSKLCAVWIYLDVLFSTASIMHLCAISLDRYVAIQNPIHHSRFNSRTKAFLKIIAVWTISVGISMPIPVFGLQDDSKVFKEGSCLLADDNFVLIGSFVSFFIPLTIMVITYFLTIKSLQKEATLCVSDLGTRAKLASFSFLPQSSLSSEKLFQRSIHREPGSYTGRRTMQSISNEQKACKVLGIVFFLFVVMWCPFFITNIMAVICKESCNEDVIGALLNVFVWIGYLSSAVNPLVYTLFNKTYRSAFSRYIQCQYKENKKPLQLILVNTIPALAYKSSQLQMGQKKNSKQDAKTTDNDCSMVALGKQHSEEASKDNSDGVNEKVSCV
Method in brief: as §1

[13] = biological target: histaminergic H1 receptor (Homo sapiens, UniProt P35367); assay: Binding assay H1 (h), [3H]pyrilamine, HEK-293 cells; set-up: expressed in transfected cells; host or cells: HEK-293 cells; settings: read-out: H1 [%]
Sequence of histaminergic H1 receptor (P35367 whole entry): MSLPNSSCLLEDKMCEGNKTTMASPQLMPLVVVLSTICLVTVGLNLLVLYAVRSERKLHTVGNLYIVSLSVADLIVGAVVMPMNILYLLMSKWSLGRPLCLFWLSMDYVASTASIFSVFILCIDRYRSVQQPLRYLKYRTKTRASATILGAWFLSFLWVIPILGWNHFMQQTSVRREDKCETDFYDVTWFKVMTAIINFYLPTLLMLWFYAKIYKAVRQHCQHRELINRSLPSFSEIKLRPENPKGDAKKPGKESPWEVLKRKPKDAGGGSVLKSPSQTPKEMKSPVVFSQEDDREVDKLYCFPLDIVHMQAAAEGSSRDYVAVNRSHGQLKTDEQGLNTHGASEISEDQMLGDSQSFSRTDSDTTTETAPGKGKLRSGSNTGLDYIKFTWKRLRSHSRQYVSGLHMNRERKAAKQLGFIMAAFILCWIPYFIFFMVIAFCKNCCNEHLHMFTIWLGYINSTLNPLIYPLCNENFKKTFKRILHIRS
Protocol: as §2, §3

T1 sequence (P31645 whole entry): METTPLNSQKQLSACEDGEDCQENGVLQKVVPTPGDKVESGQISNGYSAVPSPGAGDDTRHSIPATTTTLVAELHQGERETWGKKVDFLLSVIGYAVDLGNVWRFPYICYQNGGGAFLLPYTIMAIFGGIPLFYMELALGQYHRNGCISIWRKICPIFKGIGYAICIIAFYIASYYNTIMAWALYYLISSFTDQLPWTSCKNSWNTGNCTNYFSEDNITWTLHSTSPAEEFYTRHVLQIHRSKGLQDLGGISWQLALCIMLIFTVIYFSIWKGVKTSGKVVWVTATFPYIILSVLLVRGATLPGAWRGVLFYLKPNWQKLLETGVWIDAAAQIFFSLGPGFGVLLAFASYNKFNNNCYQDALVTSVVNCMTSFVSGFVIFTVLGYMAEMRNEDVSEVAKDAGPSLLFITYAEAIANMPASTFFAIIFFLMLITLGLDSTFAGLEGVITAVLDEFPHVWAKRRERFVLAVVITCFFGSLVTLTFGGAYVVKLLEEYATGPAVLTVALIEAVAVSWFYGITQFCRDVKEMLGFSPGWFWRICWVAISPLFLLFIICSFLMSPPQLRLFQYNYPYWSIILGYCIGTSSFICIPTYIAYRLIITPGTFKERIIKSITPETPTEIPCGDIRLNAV

Structure (SMILES)	inhibition at 1 µM [1]	σ [%] [2]	α1 [%] [3]	inhibition at 1 µM [4]	inhibition at 1 µM [5]	inhibition at 1 µM [6]	inhibition at 1 µM [7]	inhibition at 1 µM [8]	inhibition at 1 µM [9]	inhibition at 1 µM [10]	inhibition at 1 µM [11]	inhibition at 1 µM [12]	inhibition at 1 µM [13]
Cc1[nH]c2ccc(Cl)cc2c1C1=CCN(CCCCNS(=O)(=O)c2ccc(Cl)cc2)CC1 [Compound 58, 4-Chloro-N-{4-[4-(5-chloro-2-methyl-1H-indol-3-yl)-3,6-dihydropyridin-1(2H)-yl]butyl}benzenesulphonamide]	78%	34%	76%	11%	21%	100%	84%	46%	80%	97%	94%	51%	75%
O=S(=O)(NCCCCN1CCN(c2nsc3ccccc23)CC1)c1ccc(F)c(Cl)c1 [Compound 63, N-[4-[4-(1,2-Benzothiazol-3-yl)piperazin-1-yl]butyl]-3-chloro-4-fluorobenzenesulphonamide]	53%	54%	99%	11%	95%	103%	89%	99%	98%	99%	97%	100%	99%
O=S(=O)(NCCCN1CCN(c2nsc3ccccc23)CC1)c1ccc(F)c(Cl)c1 [Compound 64, N-[3-[4-(1,2-Benzothiazol-3-yl)piperazin-1-yl]propyl]-3-chloro-4-fluorobenzenesulphonamide]	80%	54%	93%	7%	–	98%	99%	99%	100%	98%	99%	101%	98%
Cc1c(S(=O)(=O)NCCCN2CCN(c3nsc4ccccc34)CC2)sc2ccc(F)cc12 [Compound 66, N-[3-[4-(1,2-Benzothiazol-3-yl)piperazin-1-yl]propyl]-5-fluoro-3-methylbenzothiophene-2-sulphonamide]	93%	61%	93%	10%	86%	101%	95%	101%	103%	101%	98%	101%	99%
O=S(=O)(NCCCN1CCN(c2nsc3ccccc23)CC1)c1cccc(Cl)c1 [Compound 70, N-[3-[4-(1,2-Benzothiazol-3-yl)piperazin-1-yl]propyl]-3-chlorobenzenesulphonamide]	82%	64%	96%	25%	88%	101%	99%	100%	100%	99%	99%	101%	97%
N#Cc1cccc(S(=O)(=O)NCCCN2CCN(c3nsc4ccccc34)CC2)c1 [Compound 74, N-[3-[4-(1,2-Benzothiazol-3-yl)piperazin-1-yl]propyl]-3-cyanobenzenesulphonamide]	79%	34%	94%	17%	78%	92%	95%	97%	92%	93%	99%	102%	90%
O=S(=O)(NCCCN1CCN(c2nsc3ccccc23)CC1)c1ccc(Cl)c(Cl)c1 [Compound 251, N-[3-[4-(1,2-Benzothiazol-3-yl)piperazin-1-yl]propyl]-3,4-dichlorobenzenesulphonamide]	87%	61%	95%	8%	83%	97%	99%	99%	96%	97%	99%	101%	–
O=S(=O)(NCCCN1CCC(c2noc3cc(F)ccc23)CC1)c1cc2ccc(Cl)cc2s1 [Compound 347, 6-Chloro-N-[3-[4-(6-fluoro-1,2-benzoxazol-3-yl)piperidin-1-yl]propyl]benzothiophene-2-sulphonamide]	33%	–	–	12%	99%	103%	99%	100%	110%	103%	92%	101%	98%
O=c1[nH]c2cccc(N3CCN(CCCNS(=O)(=O)c4ccc(Cl)cc4)CC3)c2[nH]1 [Compound 425, 4-chloro-N-[3-[4-(2-oxo-1,3-dihydrobenzimidazol-4-yl)piperazin-1-yl]propyl]-benzenesulphonamide]	10%	–	–	2%	24%	104%	5%	95%	59%	91%	98%	25%	6%
